Measurements reported in patent publication US11459296B2, “Antibacterial compounds” (INFEX Therapeutics Limited, priority 2018, dated 2022).
pIC50: −log10 of the molar value. ≈ marks a conversion by molar mass, not a printed value. Structures can show the parent of a compound that is named as a salt.

Test system: not listed separately
Test: Cytotoxicity Assay (CellTiter-Glo)
Format: cell-based
Conditions: human, Hep G2 cells (ATCC HB-8065); 24 h exposure, cell viability; read-out: HepG2 CC50
Description: Cytotoxicity was evaluated in human Hep G2 cells (ATCC HB-8065) seeded at a density of 2×10^5 cells per well and incubated for 24 h at 37° C., 5% CO2. Cells were exposed to a doubling dilution series of test article. After 24 h exposure, the viability of the cells was determined using CellTiter-Glo® (Promega, Wis., USA) according to the manufacturer's instructions. Results are reported as the concentration of test article required to reduce cell viability by 50% (CC50).
Work on Nc1ccc(-c2ccn(S(N)(=O)=O)c2C(=O)O)cn1 [Example 1, 3-(6-Aminopyridin-3-yl)-1-sulfamoyl-1H-pyrrole-2-carboxylic acid] yielded a CC50 at 24 h greater than 256 µg/mL.
Compound Cc1ccc(-c2ccn(S(N)(=O)=O)c2C(=O)O)cc1 [Example 2, 3-(p-tolyl)-1-sulfamoyl-1H-pyrrole-2-carboxylic acid, sodium salt] has a CC50 at 24 h greater than 128 µg/mL.
In the case of NS(=O)(=O)n1ccc(-c2ccccc2)c1C(=O)O [Example 3, 3-Phenyl-1-sulfamoyl-1H-pyrrole-2-carboxylic acid, sodium salt], the CC50 at 24 h was greater than 128 µg/mL.
Work on CN(C)S(=O)(=O)c1ccc(-c2ccn(S(N)(=O)=O)c2C(=O)O)cc1 [Example 4, 3-[4-(Dimethylsulfamoyl)phenyl]-1-sulfamoyl-1H-pyrrole-2-carboxylic acid, sodium salt] yielded a CC50 at 24 h greater than 128 µg/mL.
CS(=O)(=O)c1ccc(-c2ccn(S(N)(=O)=O)c2C(=O)O)cc1 [Example 5, 3-(4-Methanesulfonylphenyl)-1-sulfamoyl-1H-pyrrole-2-carboxylic acid, sodium salt] gave a CC50 at 24 h greater than 256 µg/mL.
Compound Cn1cc(-c2ccn(S(N)(=O)=O)c2C(=O)O)cn1 [Example 6, 3-(1-Methyl-1H-pyrazol-4-yl)-1-sulfamoyl-1H-pyrrole-2-carboxylic acid, sodium salt] has a CC50 at 24 h greater than 256 µg/mL.
In the case of Cc1nn(C)c(C)c1-c1ccn(S(N)(=O)=O)c1C(=O)O [Example 7, 1-Sulfamoyl-3-(1,3,5-trimethyl-1H-pyrazol-4-yl)-1H-pyrrole-2-carboxylic acid, sodium salt], the CC50 at 24 h was greater than 256 µg/mL.
Compound NS(=O)(=O)n1ccc(-c2cccnc2)c1C(=O)O [Example 8, 3-(Pyridin-3-yl)-1-sulfamoyl-1H-pyrrole-2-carboxylic acid, sodium salt] has a CC50 at 24 h greater than 256 µg/mL.
With NS(=O)(=O)n1ccc(-c2ccncc2)c1C(=O)O [Example 9, 3-(Pyridin-4-yl)-1-sulfamoyl-1H-pyrrole-2-carboxylic acid, sodium salt] the CC50 at 24 h was greater than 256 µg/mL.
In the case of NS(=O)(=O)n1ccc(C2CCCCC2)c1C(=O)O [Example 10, 3-Cyclohexyl-1-sulfamoyl-pyrrole-2-carboxylic acid, sodium salt], the CC50 at 24 h was 145 µg/mL.
NS(=O)(=O)n1ccc(-c2cccc3ncccc23)c1C(=O)O [Example 11, 3-(5-Quinolyl)-1-sulfamoyl-pyrrole-2-carboxylic acid, sodium salt] gave a CC50 at 24 h greater than 256 µg/mL.
NS(=O)(=O)n1ccc(-c2ccc(-c3ccncc3)cc2)c1C(=O)O [Example 13, 3-[4-(Pyridin-4-yl)phenyl]-1-sulfamoyl-1H-pyrrole-2-carboxylic acid] showed a CC50 at 24 h greater than 256 µg/mL.
With NS(=O)(=O)n1ccc(-c2ccccc2F)c1C(=O)O [Example 14, 3-(2-Fluorophenyl)-1-sulfamoyl-pyrrole-2-carboxylic acid] the CC50 at 24 h was greater than 256 µg/mL.
In the case of N#Cc1ccc(-c2ccn(S(N)(=O)=O)c2C(=O)O)cc1 [Example 15, 3-(4-Cyanophenyl)-1-sulfamoyl-1H-pyrrole-2-carboxylic acid], the CC50 at 24 h was greater than 256 µg/mL.
In the case of NS(=O)(=O)n1ccc(-c2ccc(N3CCOCC3)nc2)c1C(=O)O [Example 16, 3-[6-(Morpholin-4-yl)pyridin-3-yl]-1-sulfamoyl-1H-pyrrole-2-carboxylic acid], the CC50 at 24 h was greater than 64 µg/mL.
For CC(C)(C)OC(=O)N1CCN(S(=O)(=O)c2ccc(-c3ccn(S(N)(=O)=O)c3C(=O)O)cc2)CC1 [Example 17, 3-[4-(4-tert-Butoxycarbonylpiperazin-1-yl)sulfonylphenyl]-1-sulfamoyl-pyrrole-2-carboxylic acid, sodium salt], the CC50 at 24 h was 252 µg/mL.
Cc1ccccc1-c1ccn(S(N)(=O)=O)c1C(=O)O [Example 20, 3-(o-Tolyl)-1-sulfamoyl-pyrrole-2-carboxylic acid] showed a CC50 at 24 h greater than 256 µg/mL.
NS(=O)(=O)n1ccc(-c2ccc(S(=O)(=O)N3CCNCC3)cc2)c1C(=O)O [Example 35, 3-[4-(Piperazine-1-sulfonyl)phenyl]-1-sulfamoyl-1H-pyrrole-2-carboxylic acid] gave a CC50 at 24 h greater than 256 µg/mL.
For NS(=O)(=O)n1ccc(-c2ccc(OC3CCNCC3)cc2)c1C(=O)O [Example 37, 3-[4-(Piperidin-4-yloxy)phenyl]-1-sulfamoyl-1H-pyrrole-2-carboxylic acid hydrochloride], the CC50 at 24 h was greater than 256 µg/mL.
Work on NS(=O)(=O)n1ccc(C2=CCNCC2)c1C(=O)O [Example 38, 1-Sulfamoyl-3-(1,2,3,6-tetrahydropyridin-4-yl)-1H-pyrrole-2-carboxylic acid hydrochloride] yielded a CC50 at 24 h greater than 256 µg/mL.
With CC(=O)N1CCC(c2ccc(-c3ccn(S(N)(=O)=O)c3C(=O)O)cc2)CC1 [Example 48, 3-[4-(1-Acetylpiperidin-4-yl)phenyl]-1-sulfamoyl-1H-pyrrole-2-carboxylic acid] the CC50 at 24 h was 158 µg/mL (≈ 405 µM).
CN(C)S(=O)(=O)N1CCC(c2ccc(-c3ccn(S(N)(=O)=O)c3C(=O)O)cc2)CC1 [Example 49, 3-[4-[1-(Dimethylsulfamoyl)piperidin-4-yl]phenyl]-1-sulfamoyl-1H-pyrrole-2-carboxylic acid] gave a CC50 at 24 h of 66.4 µg/mL (≈ 145 µM).
In the case of NS(=O)(=O)n1ccc(Cc2ccccc2)c1C(=O)O [Example 54, 3-Benzyl-1-sulfamoyl-1H-pyrrole-2-carboxylic acid], the CC50 at 24 h was 248 µg/mL (≈ 884 µM).
NS(=O)(=O)n1ccc(C2CC2)c1C(=O)O [Example 55, 3-Cyclopropyl-1-sulfamoyl-1H-pyrrole-2-carboxylic acid] gave a CC50 at 24 h greater than 256 µg/mL.
NS(=O)(=O)n1ccc(C2CCNCC2)c1C(=O)O [Example 57, 3-(Piperidin-4-yl)-1-sulfamoyl-1H-pyrrole-2-carboxylic acid hydrochloride] showed a CC50 at 24 h greater than 256 µg/mL.
CS(=O)(=O)N1CCC(c2ccn(S(N)(=O)=O)c2C(=O)O)CC1 [Example 59, 3-(1-Methylsulfonyl-4-piperidyl)-1-sulfamoyl-pyrrole-2-carboxylic acid] showed a CC50 at 24 h greater than 256 µg/mL.
With CCc1cn(S(N)(=O)=O)c(C(=O)O)c1-c1ccccc1 [Example 74, 4-Ethyl-3-phenyl-1-sulfamoyl-pyrrole-2-carboxylic acid] the CC50 at 24 h was 237 µg/mL (≈ 805 µM).
Compound Cc1cn(S(N)(=O)=O)c(C(=O)O)c1-c1ccccc1 [Example 75, 4-Methyl-3-phenyl-1-sulfamoyl-1H-pyrrole-2-carboxylic acid] has a CC50 at 24 h greater than 256 µg/mL.
For NS(=O)(=O)c1ccn(-c2ccc(F)cc2)c1C(=O)O [Example 80, 1-(4-Fluorophenyl)-3-sulfamoyl-pyrrole-2-carboxylic acid], the CC50 at 24 h was greater than 256 µg/mL.
In the case of Cc1ccc(-n2ccc(S(N)(=O)=O)c2C(=O)O)cc1 [Example 81, 1-(p-Tolyl)-3-sulfamoyl-pyrrole-2-carboxylic acid], the CC50 at 24 h was greater than 256 µg/mL.
Work on NS(=O)(=O)c1ccn(-c2ccc(C3CCNCC3)cc2)c1C(=O)O [Example 82, 1-[4-(Piperidin-4-yl)phenyl]-3-sulfamoyl-1H-pyrrole-2-carboxylic acid, sodium salt] yielded a CC50 at 24 h greater than 256 µg/mL.
Work on COc1ccc(-n2ccc(S(N)(=O)=O)c2C(=O)O)cc1 [Example 83, 1-(4-Methoxyphenyl)-3-sulfamoyl-pyrrole-2-carboxylic acid] yielded a CC50 at 24 h greater than 256 µg/mL.
Work on NS(=O)(=O)c1ccn(Cc2ccccc2)c1C(=O)O [Example 84, 1-Benzyl-3-sulfamoyl-pyrrole-2-carboxylic acid] yielded a CC50 at 24 h greater than 256 µg/mL.

Target: NDM-1 (Klebsiella pneumoniae, UniProt C7C422)
Sequence (C7C422 whole entry, looked up, species assumed): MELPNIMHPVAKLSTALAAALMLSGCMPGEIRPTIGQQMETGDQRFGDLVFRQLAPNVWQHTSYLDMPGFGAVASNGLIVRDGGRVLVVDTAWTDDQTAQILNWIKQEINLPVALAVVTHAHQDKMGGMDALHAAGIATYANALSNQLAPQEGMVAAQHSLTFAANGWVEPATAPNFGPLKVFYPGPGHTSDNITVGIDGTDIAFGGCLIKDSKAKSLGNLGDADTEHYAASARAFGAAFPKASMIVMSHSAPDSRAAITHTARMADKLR
Test: metallo-β-lactamase inhibition assay (nitrocefin)
Format: biochemical
Conditions: 1.5 nM NDM-1, 100 μM nitrocefin, 37° C., pH 7.5
Description: Compounds of the invention were tested in a metallo-β-lactamase inhibition assay to investigate mechanism of action of the compounds. Results are reported as the concentration of test article required to inhibit enzyme activity by 50% (IC50).
Inhibition of metallo-β-lactamase enzyme function was performed at 37° C. in buffer at pH 7.5 (50 mM HEPES, 150 mM NaCl, 0.1 mM ZnSO4, 20 μg/mL PEG4000), containing 1.5 nM NDM-1, 100 μM nitrocefin, and a range of concentrations of compound. Absorbance at 490 nm was measured using a BMG LABTECH FLUOstar Omega microplate reader every minute for 30 minutes. IC50S were determined from the average increase in OD per minute versus the Log 10 concentration of compound using GraphPad Prism.
Work on Nc1ccc(-c2ccn(S(N)(=O)=O)c2C(=O)O)cn1 [Example 1, 3-(6-Aminopyridin-3-yl)-1-sulfamoyl-1H-pyrrole-2-carboxylic acid] yielded a pIC50 of 6.08.
Cc1ccc(-c2ccn(S(N)(=O)=O)c2C(=O)O)cc1 [Example 2, 3-(p-tolyl)-1-sulfamoyl-1H-pyrrole-2-carboxylic acid, sodium salt] gave a pIC50 of 6.32.
CS(=O)(=O)c1ccc(-c2ccn(S(N)(=O)=O)c2C(=O)O)cc1 [Example 5, 3-(4-Methanesulfonylphenyl)-1-sulfamoyl-1H-pyrrole-2-carboxylic acid, sodium salt] showed a pIC50 of 6.35.
With Cn1cc(-c2ccn(S(N)(=O)=O)c2C(=O)O)cn1 [Example 6, 3-(1-Methyl-1H-pyrazol-4-yl)-1-sulfamoyl-1H-pyrrole-2-carboxylic acid, sodium salt] the pIC50 was 5.54.
Work on NS(=O)(=O)n1ccc(-c2cccnc2)c1C(=O)O [Example 8, 3-(Pyridin-3-yl)-1-sulfamoyl-1H-pyrrole-2-carboxylic acid, sodium salt] yielded a pIC50 of 6.35.
With NS(=O)(=O)n1ccc(-c2ccncc2)c1C(=O)O [Example 9, 3-(Pyridin-4-yl)-1-sulfamoyl-1H-pyrrole-2-carboxylic acid, sodium salt] the pIC50 was 5.87.
Work on NS(=O)(=O)n1ccc(-c2cccc3ncccc23)c1C(=O)O [Example 11, 3-(5-Quinolyl)-1-sulfamoyl-pyrrole-2-carboxylic acid, sodium salt] yielded a pIC50 of 5.39.
For CC(=O)Nc1ccc(-c2ccn(S(N)(=O)=O)c2C(=O)O)cn1 [Example 24, 3-(6-Acetamido-3-pyridyl)-1-sulfamoyl-pyrrole-2-carboxylic acid], the pIC50 was 6.22.
Nc1ncc(-c2ccn(S(N)(=O)=O)c2C(=O)O)cn1 [Example 25, 3-(2-Aminopyrimidin-5-yl)-1-sulfamoyl-pyrrole-2-carboxylic acid, sodium salt] gave a pIC50 of 5.87.
In the case of NC(=O)c1ccc(-c2ccn(S(N)(=O)=O)c2C(=O)O)cc1 [Example 26, 3-(4-Carbamoylphenyl)-1-sulfamoyl-pyrrole-2-carboxylic acid], the pIC50 was 6.29.
Work on NS(=O)(=O)n1ccc(-c2cccc(C3CCNCC3)c2)c1C(=O)O [Example 40, 3-[3-(4-Piperidyl)phenyl]-1-sulfamoyl-pyrrole-2-carboxylic acid hydrochloride] yielded a pIC50 of 6.58.
In the case of Nc1nc2ccc(-c3ccn(S(N)(=O)=O)c3C(=O)O)cn2n1 [Example 47, 3-(2-Amino-[1,2,4]triazolo[1,5-a]pyridin-6-yl)-1-sulfamoyl-pyrrole-2-carboxylic acid hydrochloride], the pIC50 was 6.18.
In the case of NCCCNC(=O)c1ccc(-c2ccn(S(N)(=O)=O)c2C(=O)O)cc1 [Example 51, 3-[4-(3-Aminopropylcarbamoyl)phenyl]-1-sulfamoyl-pyrrole-2-carboxylic acid hydrochloride], the pIC50 was 6.58.
For Nc1nc2c(-c3ccn(S(N)(=O)=O)c3C(=O)O)cccc2s1 [Example 53, 3-(2-Amino-1,3-benzothiazol-4-yl)-1-sulfamoyl-pyrrole-2-carboxylic acid hydrochloride], the pIC50 was 6.50.
In the case of NCCC(=O)N1CCC(c2ccn(S(N)(=O)=O)c2C(=O)O)CC1 [Example 63, 3-[1-(3-Aminopropanoyl)-4-piperidyl]-1-sulfamoyl-pyrrole-2-carboxylic acid], the pIC50 was 6.08.
